# From paper PMC9130233, “An inhibitor of RORγ for chronic pulmonary obstructive disease treatment” (Scientific Reports, 2022)
# pIC50: −log10 of the molar value.
# Experiments:
# [1] = system: T1, RARα; assay: TR-FRET selectivity binding assay, RARα
# T1 construct: purchased Invitrogen
# From the text: (§1) Based on the homology of the ligand binding domains, 3 different isoforms of ROR (hRORα, hRORβ and hRORγ) are reported. Small variations in the LBD regions possibly lead to differences in competitive binding between the nuclear receptors of the ROR isoforms (Fig. 1b). Similar to the assessment of RORγ binding assay, TR-FRET binding assays were also used to assess the affinity of PCCR-1 for other ROR isoforms. […] This was reconfirmed in cellular functional assays for the selected isoforms and nuclear receptors using Gal4 DBD with luciferase reporter system from Indigo (PA, USA). […] In addition, both cellular agonist and antagonist effects as well as for enzyme activity were evaluated with a known reference compound for each target, using a radiolabeled method (Eurofins Cerep, France, Table 1).
# (§2) For selectivity, the ROR isoforms RORα, FXR, LXRα, LXRβ, RXR, RARα were incubated with compound for 60 min at 22 °C followed by detection mix containing respective agonist (All trans retinoic acid for RARα, T0901317 for LXRα, LXRβ, 9-cis Retinoic acid for RXR, GW-4064 for FXR) and coactivator peptide (FD22 for RORα, PGC1α for RXR, RARα, TRAP220 for LXRα, LXRβ, SRC2-2 for FXR) and Tb-anti GST antibody prepared in assay buffer were added into a 384-well white plate. Reading taken after overnight incubation and the data analysis done as per the protocol mentioned in RORγt-LBD and co-activator ligand binding assay.
# [2] = system: hFXR; assay: Nuclear receptors: functional assay, hFXR antagonism; format: cell-based, human; details: nuclear receptors: functional assays
# From the text: as §1
# [3] = system: IL-17A release in canine PBMC; assay: IL-17A release, canine PBMC, anti-CD3 + anti-CD28; format: cell-based; details: Canis lupus familiaris, anti-CD3 + anti-CD28, n = 6, read-out: Cellular activity: Canine IC50, IL-17A release
# Description: (§3) Inhibition of RORγ by PCCR-1 was also estimated in a functional assay by measuring the inhibition of Th17 dependent cytokine IL-17A release in human peripheral blood mononuclear cells (PBMCs), mouse splenocytes and canine PBMC stimulated with their respective anti-CD3 and anti-CD28 antibodies.
# Canine PBMCs were procured from Lonza (Cologue, Germany). Frozen canine PBMCs was quickly thawed in a 37 °C water bath and cells were seeded in 96-well plates coated with canine anti-CD3mAb (30 µg/mL). Cells were further treated with the compound similar to human PBMC with co-stimulation of canine anti-CD28 mAb (10 µg/mL). After 72 h of incubation the supernatant was collected for estimating canine IL-17 by ELISA.
# [4] = system: RXR; assay: TR-FRET selectivity binding assay, RXR
# From the text: as §1, §2
# [5] = Single dose intranasal PK study in mice; format: in vivo, mouse
# Description: A single dose intranasal PK study of PCCR-1 was conducted in male C57 mice at 20 and 50 µg/animal dose. The formulation was prepared in saline with 0.1% v/v tween-80 as the wetting agent. Animals were anesthetized briefly using gaseous isoflurane and oxygen mixture and a 40 µL of the formulation was instilled into both the nostrils (20 µL each) once the animal reached a regular breathing pattern and at pre-determined time points (0.25 h, 0.5 h, 1 h, 2 h, 4 h, 8 h and 24 h), approximately 0.3 mL of blood samples were collected using retro-orbital puncture in suitable anticoagulant (K3 EDTA). The animals were immediately sacrificed and lung was isolated. Blood samples were centrifuged (3000 rpm, 5 min) and plasma was harvested. Lung samples were homogenized in PBS buffer (pH 7.4) and centrifuged to collect the supernatant. Both plasma and lung samples were extracted using methyl t-butyl ether, mixed and centrifuged. The supernatant samples obtained after centrifugation were dried and reconstituted with acetonitrile-ammonium acetate buffer (90:10). The samples were mixed and analyzed in LCMS/MS for the analyte concentrations. Concentration vs time values were subjected to non-compartmental analysis using Phoenix WinNonlin® (Version 6.4) to estimate the appropriate pharmacokinetics parameters.
# [6] = system: IL-17A in human whole blood; assay: IL-17A inhibition, human whole blood, TCR stimulation; format: cell-based; details: TCR stimulatory conditions, n = 10
# Description: For whole blood assay the heparinized whole blood was diluted (1:1) with saline and added in 96-well plate pre-coated with human anti-CD3 mAb (10 µg/mL). Compound treatment was done for 30 min followed by co-stimulation with anti-CD28 mAb (2 µg/mL). After 48 h of incubation supernatant was used for IL-17 estimation by ELISA.
# [7] = system: IL-17 release in mouse peritoneal neutrophils; assay: IL-17 release, mouse peritoneal neutrophils, LPS; format: cell-based; details: Neutrophil, n = 2, read-out: potency, IL-17 release inhibition
# Description: The peritoneal neutrophils or macrophages were isolated from C57BL/6 male mice or BALB/c female mice (6–8 wks; 18–22 g) injected with 3% or 4% thioglycollate broth. After 4 h or 4 days, RPMI medium was injected into the peritoneal cavity of mouse and peritoneal lavage was collected. The lavage was pooled and spun at 800 rpm for 10 min. The pellet was re-suspended in 1X Gey’s solution for 5 min followed by PBS wash. In case of neutrophils, the isolated cells were seeded in 48 well plate for 1.5 h. After 1.5 h, the supernatant containing peritoneal neutrophils were collected and centrifuged at 2000 rpm for 10 min and the pellet were re-suspended in 2% RPMI. In case of isolated peritoneal macrophages, the cells were seeded in 48 well plate for 3–4 h followed by PBS wash. Both the neutrophils and macrophages were treated with PCCR-1 in 2% RPMI for 1 h followed by stimulation with 10 µg/ml or 5 µg/ml of LPS for 18 h or 24 h. The supernatant collected for IL-17 estimation by ELISA.
# [8] = system: IL-17A release in mouse splenocytes; assay: IL-17A release, mouse splenocytes, anti-CD3 + anti-CD28; format: cell-based; details: Splenocyte, anti-CD3 + anti-CD28, n = 13, read-out: Cellular activity: Mouse IC50, IL-17A release
# Description: as §3
# Splenocytes were prepared from 6–8 week old BALB/c mice and cells were seeded in 96-well plates coated with mouse anti-CD3 mAb (10 µg/mL). Cells were treated with test compounds for 30 min followed by stimulation with mouse anti- CD28 mAb (3 µg/mL) for 72 h at 37 °C in 5% CO2 incubator. The supernatant was used for estimating mouse IL-17 by ELISA.
compound,measurement,setting,value
CCn1c(C(C)(C)Oc2ccc(F)cc2F)nc2cc(NC(=O)Cc3ccc(S(=O)(=O)CC)cc3)ccc21 [PCCR-1],% Inhibition RARα,[1]; 1 µM,0.00%
same,% Inhibition RARα,[1]; 10 µM,0.00%
same,"Fold over hRORγ, RARα",[1]; vs RORg IC50 31.87 nM,> 313.7 fold
same,hFXR (antagonism),[2],~10 µM
same,pIC50,[3],6.30
same,% Inhibition RXR,[4]; 1 µM,0.00%
same,% Inhibition RXR,[4]; 10 µM,8.24%
same,"Fold over hRORγ, RXR",[4]; vs RORg IC50 31.87 nM,> 313.7 fold
same,"quantifiable levels in lungs, time post dose",[5],up to 24 h
same,mean lung to plasma AUClast ratio,[5]; both doses (20 and 50 µg),> 1000
same,time of peak lung concentrations post dose,[5]; both doses (20 and 50 µg),2 to 4 h
same,Kp,"[5]; male, C57, mouse, lung/plasma, inhaled or intranasal, 50 ug, both doses (20 and 50 µg), read-out: mean lung to plasma Cmax ratio",> 1000
same,pIC50,[6],5.52
same,pIC50,[7],6.61
same,pIC50,[8],6.12
